Measured values from patent US6767569B1, “Surface decontamination of cooked sausage and processed meat and poultry products” (priority 1999, dated 2004).
Several values for one entry are separate records, joined by “and”; a condition that tells them apart may be missing. Equal entries are not always repeated. Marks after values point to notes of the source that are not given here.

Legend:
Listeria monocytogenes = test: Dip treatment of Listeria monocytogenes-inoculated frankfurters, quantitative plating on MOX agar; type: cell-based
Procedure: A five-strain mixture of Listeria monocytogenes was used for purposes of inoculation. To prepare this mixture, five strains of L. monocytogenes were grown individually in tryptic soy broth (TSB), for 48±2 h at 30° C. Equivalent aliquots of broth from each strain were then combined in a sterile test tube to achieve a mixed inoculum containing approximately equal populations of each of the five strains. The mixed culture was diluted as appropriate using 0.1% peptone diluent to achieve a final mixed inoculum with a cell density of approximately 10,000 colony forming units (cfu)/ml.
Packages of commercially prepared beef frankfurter sausages (“franks”) were obtained from a local retail outlet. The packages were stored at 4° C. until use (no more than 24 hours). Immediately prior to testing, the franks were removed from the commercial packaging and placed on a sterile surface in a biological safety cabinet. The franks were oriented on the surface such that no franks were in contact with each other. Using a micropipette, each individual frank (except for those used as controls) was inoculated with 0.1 ml of the previously prepared mixed inoculum with a target inoculation level of 1,000 cfu/frank. A sterile bent rod was used to spread the inoculum over the frank surface as evenly as possible. Inoculated franks were allowed to remain undisturbed on the sterile surface for at least 5 minutes prior to treatment with the decontaminant solution. Three franks were inoculated per treatment to be evaluated, one frank being tested without inoculation.
The peracetic acid used in the evaluation was obtained as a 35% concentrate under the trade name STERIS 20™ Sterilant Concentrate from STERIS Corporation (Mentor, Ohio). The concentrate was used without the buffers or other additives supplied by the manufacturer. The concentrate was diluted to appropriate nominal concentrations (100, 500, and 1000 ppm). Approximately 1 L of each concentration to be evaluated was prepared in sanitized 2 L, plastic containers. Additionally, 1 L of a control treatment, namely sterile distilled water (0 ppm peracetic acid), was also prepared in a 2 L container. Each of these four concentrations was evaluated using two exposure times, 2 and 10 seconds. Therefore, a total of eight treatments (four peracetic acid concentrations (0, 100, 500, and 1000 ppm) at two exposure times (2 and 10 seconds) were evaluated in this study. Each test was carried out two or more times for establishing reproducibility.
All peracetic acid treatments were performed inside a biological safety cabinet. Inoculated franks were dipped into the peracetic acid treatment solution (or distilled water for the 0 ppm samples) and allowed to remain submerged for either 2 or 10 seconds. Sterile utensils were employed to remove the franks from the treatment solution and transfer them to a sterile distilled water rinse. Franks were then submerged in a sterile water rinse and remained submerged for 2 or 10 seconds (i.e., the same time as they were exposed to the peracetic acid solution) and were removed with sterile utensils. Immediately after removal from the sterile water rinse, the franks were placed on a sterile surface and allowed to air dry for 5 minutes.
Following air drying, one frank per treatment was placed in a sterile Stomacher bag and analyzed quantitatively for residual L. monocytogenes populations. The remaining two franks were retained in sterile Stomacher bags and used for qualitative analysis, if necessary (in the event no surviving cells were detected using quantitative procedures).
To determine the number of surviving L. monocytogenes cells (quantitative evaluation), one frank per treatment was analyzed. The weight of the frank was determined and an appropriate volume of 0.1% peptone diluent added to achieve a 1:5 dilution. These samples were homogenized for 2 minutes using a Stomacher Lab Blender. […]

Listeria = test: Further tests: peracetic acid sprayed over the frankfurters; type: cell-based, Listeria monocytogenes; conditions: 2000 ppm sprayed over the frankfurters for 30 seconds to one minute

CC(=O)OO [peracetic acid]
After treatment (CFU/frank) (Listeria monocytogenes; PAA 100 ppm (actual 114 ppm), 2 sec exposure followed by 2 sec deionized water rinse): 180 CFU/frank and <90* CFU/frank and 90 CFU/frank | After treatment (CFU/frank) (Listeria monocytogenes; PAA 100 ppm (actual 114 ppm), 2 sec exposure followed by 2 sec deionized water rinse, listed as PAA): at least 90 CFU/frank | After treatment (CFU/frank) (Listeria monocytogenes; PAA 100 ppm (actual 114 ppm), 10 sec exposure followed by 10 sec deionized water rinse, target inoculation 1,000 CFU/frank): <90* CFU/frank and 180 CFU/frank | After treatment (CFU/frank) (Listeria monocytogenes; PAA 100 ppm (actual 114 ppm), 10 sec exposure followed by 10 sec deionized water rinse, target inoculation 1,000 CFU/frank, listed as PAA): at least 90 CFU/frank | After treatment (CFU/frank) (Listeria monocytogenes; PAA 500 ppm (actual 572 ppm), 2 sec exposure followed by 2 sec deionized water rinse): <90* CFU/frank and 90 CFU/frank | After treatment (CFU/frank) (Listeria monocytogenes; PAA 500 ppm (actual 572 ppm), 2 sec exposure followed by 2 sec deionized water rinse, listed as PAA): < 90 CFU/frank | After treatment (CFU/frank) (Listeria monocytogenes; PAA 500 ppm (actual 572 ppm), 10 sec exposure followed by 10 sec deionized water rinse): <90* CFU/frank | After treatment (CFU/frank) (Listeria monocytogenes; PAA 500 ppm (actual 572 ppm), 10 sec exposure followed by 10 sec deionized water rinse, listed as PAA): less than the detection limit of the quantitative plating procedure | After treatment (CFU/frank) (Listeria monocytogenes; PAA 1000 ppm (actual 1146 ppm), 2 sec exposure followed by 2 sec deionized water rinse): <90* CFU/frank | After treatment (CFU/frank) (Listeria monocytogenes; PAA 1000 ppm (actual 1146 ppm), 2 sec exposure followed by 2 sec deionized water rinse, listed as PAA): < 90 CFU/frank | After treatment (CFU/frank) (Listeria monocytogenes; PAA 1000 ppm (actual 1146 ppm), 10 sec exposure followed by 10 sec deionized water rinse): <90* CFU/frank | After treatment (CFU/frank) (Listeria monocytogenes; PAA 1000 ppm (actual 1146 ppm), 10 sec exposure followed by 10 sec deionized water rinse, listed as PAA): < 90 CFU/frank | kill level (Listeria): complete kill
